Measurements published in the NIST ThermoML archive (doi:10.1021/je030101n).
Numbers after ± are expanded uncertainties.

Assay: xn = mol fraction of the nth substance listed
Conditions: 101.3 kPa, Liquid; for viscosity: Capillary tube (Ostwald / Ubbelohde) method; for mass density: Pycnometric method

Nc1ccccc1 [aniline] + CN(C)C=O
Conditions | mass density, 298.15 K [kg/m3] | mass density, 303.15 K [kg/m3] | mass density, 308.15 K [kg/m3] | mass density, 313.15 K [kg/m3] | viscosity, 298.15 K [mPa·s] | viscosity, 303.15 K [mPa·s] | viscosity, 308.15 K [mPa·s] | viscosity, 313.15 K [mPa·s]
x2 = 0 | 1017.2 ± 0.6 | 1012.9 ± 0.6 | 1008.6 ± 0.6 | 1004.2 ± 0.6 | 3.69 ± 0.028 | 3.19 ± 0.024 | 2.8 ± 0.021 | 2.42 ± 0.018
x2 = 0.1293 | 1010.3 ± 0.5 | 1006 ± 0.5 | 1001.7 ± 0.5 | 997.3 ± 0.5 | 3.296 ± 0.024 | 2.864 ± 0.021 | 2.521 ± 0.018 | 2.186 ± 0.016
x2 = 0.2582 | 1005.8 ± 0.5 | 1001.5 ± 0.5 | 997.2 ± 0.5 | 992.9 ± 0.5 | 2.908 ± 0.02 | 2.54 ± 0.018 | 2.242 ± 0.016 | 1.952 ± 0.014
x2 = 0.3548 | 1000.5 ± 0.4 | 996.2 ± 0.4 | 991.9 ± 0.4 | 987.6 ± 0.5 | 2.621 ± 0.018 | 2.298 ± 0.015 | 2.034 ± 0.014 | 1.779 ± 0.012
x2 = 0.4642 | 993.9 ± 0.4 | 989.5 ± 0.4 | 985.1 ± 0.4 | 980.7 ± 0.4 | 2.3 ± 0.015 | 2.025 ± 0.013 | 1.8 ± 0.012 | 1.583 ± 0.011
x2 = 0.5537 | 987.6 ± 0.4 | 983.2 ± 0.4 | 978.9 ± 0.4 | 974.5 ± 0.4 | 2.04 ± 0.013 | 1.803 ± 0.012 | 1.611 ± 0.01 | 1.423 ± 0.009
x2 = 0.6614 | 978.8 ± 0.3 | 974.3 ± 0.3 | 969.8 ± 0.4 | 965.3 ± 0.4 | 1.731 ± 0.011 | 1.543 ± 0.01 | 1.387 ± 0.009 | 1.237 ± 0.008
x2 = 0.7558 | 969.2 ± 0.3 | 964.8 ± 0.3 | 960.4 ± 0.3 | 955.9 ± 0.3 | 1.466 ± 0.009 | 1.319 ± 0.008 | 1.194 ± 0.008 | 1.079 ± 0.007
x2 = 0.8302 | 961.4 ± 0.3 | 957 ± 0.3 | 952.6 ± 0.3 | 948.1 ± 0.3 | 1.257 ± 0.008 | 1.145 ± 0.007 | 1.044 ± 0.007 | 0.954 ± 0.006
x2 = 0.9123 | 952.3 ± 0.3 | 947.7 ± 0.3 | 943.1 ± 0.3 | 938.4 ± 0.3 | 1.038 ± 0.007 | 0.955 ± 0.006 | 0.88 ± 0.006 | 0.819 ± 0.006

N#Cc1ccccc1 [benzonitrile] + CN(C)C=O
Conditions | mass density, 298.15 K [kg/m3] | mass density, 303.15 K [kg/m3] | mass density, 308.15 K [kg/m3] | mass density, 313.15 K [kg/m3] | viscosity, 298.15 K [mPa·s] | viscosity, 303.15 K [mPa·s] | viscosity, 308.15 K [mPa·s] | viscosity, 313.15 K [mPa·s]
x2 = 0 | 1000.9 ± 0.6 | 996.4 ± 0.6 | 991.9 ± 0.6 | 987.2 ± 0.6 | 1.171 ± 0.009 | 1.126 ± 0.009 | 1.068 ± 0.009 | 1.001 ± 0.008
x2 = 0.1335 | 995.4 ± 0.5 | 990.9 ± 0.5 | 986.4 ± 0.5 | 981.7 ± 0.5 | 1.17 ± 0.009 | 1.124 ± 0.009 | 1.064 ± 0.008 | 0.99 ± 0.008
x2 = 0.1981 | 992.7 ± 0.5 | 988.2 ± 0.5 | 983.7 ± 0.5 | 979 ± 0.5 | 1.169 ± 0.009 | 1.119 ± 0.008 | 1.056 ± 0.008 | 0.985 ± 0.008
x2 = 0.3191 | 987.4 ± 0.4 | 982.9 ± 0.4 | 978.4 ± 0.5 | 973.8 ± 0.5 | 1.152 ± 0.008 | 1.097 ± 0.008 | 1.033 ± 0.008 | 0.963 ± 0.007
x2 = 0.3873 | 984.3 ± 0.4 | 979.8 ± 0.4 | 975.3 ± 0.4 | 970.6 ± 0.4 | 1.134 ± 0.008 | 1.078 ± 0.008 | 1.015 ± 0.007 | 0.948 ± 0.007
x2 = 0.4907 | 979 ± 0.4 | 974.5 ± 0.4 | 970 ± 0.4 | 965.3 ± 0.4 | 1.099 ± 0.008 | 1.042 ± 0.007 | 0.98 ± 0.007 | 0.918 ± 0.007
x2 = 0.6061 | 972.2 ± 0.4 | 967.7 ± 0.4 | 963.2 ± 0.4 | 958.5 ± 0.4 | 1.049 ± 0.007 | 0.992 ± 0.007 | 0.932 ± 0.007 | 0.875 ± 0.006
x2 = 0.7176 | 965.2 ± 0.3 | 960.6 ± 0.3 | 956 ± 0.3 | 951.2 ± 0.3 | 0.992 ± 0.007 | 0.936 ± 0.006 | 0.879 ± 0.006 | 0.825 ± 0.006
x2 = 0.7997 | 959.6 ± 0.3 | 955 ± 0.3 | 950.4 ± 0.3 | 945.6 ± 0.3 | 0.943 ± 0.006 | 0.889 ± 0.006 | 0.834 ± 0.006 | 0.781 ± 0.006
x2 = 0.9209 | 950.6 ± 0.3 | 946 ± 0.3 | 941.4 ± 0.3 | 936.5 ± 0.3 | 0.862 ± 0.006 | 0.811 ± 0.006 | 0.761 ± 0.005 | 0.715 ± 0.005
